In one series the target is T1, human MAGL (Homo sapiens, UniProt Q99685).
T1 sequence (Q99685 1-303): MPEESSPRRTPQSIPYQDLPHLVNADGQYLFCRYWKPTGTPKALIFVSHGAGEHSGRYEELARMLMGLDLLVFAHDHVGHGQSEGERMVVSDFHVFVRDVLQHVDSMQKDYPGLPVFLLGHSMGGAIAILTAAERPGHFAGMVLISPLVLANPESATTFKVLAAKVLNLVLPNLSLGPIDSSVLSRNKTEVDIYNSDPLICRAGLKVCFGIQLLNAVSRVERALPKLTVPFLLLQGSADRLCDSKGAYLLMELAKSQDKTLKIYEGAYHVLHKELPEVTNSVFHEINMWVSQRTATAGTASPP
The experiment in a line: In vitro MAGL inhibition assay (2-AG hydrolysis followed by mass spectrometry). The format is biochemical. As to the method:
(§1) 4. Experimental Details of Biochemical Assays and Crystal Structure
(§2) In Vitro MAGL Inhibition Assay
(§3) Compounds were profiled for MAGL inhibitory activity by determining the enzymatic activity by following the hydrolysis of the natural substrate 2-arachidonoylglycerol (2-AG), resulting in arachidonic acid, which can be followed by mass spectrometry. The 2-AG assay was carried out in 384 well assay plates (PP, Greiner Cat# 784201) in a total volume of 20 µL. Compound dilutions were made in 100% DMSO (VWR Chemicals 23500.297) in a polypropylene plate in 3-fold dilution steps to give a final concentration range in the assay from 12.5 µM to 0.8 pM. 0.25µL compound dilutions (100% DMSO) were added to 9 µL MAGL in assay buffer (50 mM TRIS (GIBCO, 15567-027), 1 mM EDTA (Fluka, 03690-100 mL), 0.01% (v/v) Tween. After shaking, the plate was incubated for 15 min at RT. To start the reaction, 10 µL 2-arachidonoylglycerol in assay buffer was added. The final concentrations in the assay were 50 pM MAGL and 8 µM 2-arachidonoylglyerol. After shaking and 30 min incubation at RT, the reaction was quenched by the addition of 40µL of ACN containing 4 µM of d8-arachidonic acid. The amount of arachidonic acid was traced by an online SPE system (Agilent Rapidfire) coupled to a triple quadrupole mass spectrometer (Agilent 6460). A C18 SPE cartridge (G9205A) was used in an ACN/water liquid setup. The mass spectrometer was operated in negative electrospray mode following the mass transitions 303.1 → 259.1 for arachidonic acid and 311.1 → 267.0 for d8-arachidonic acid. The activity of the compounds was calculated based on the ratio of intensities [arachidonic acid / d8- […]
(§4) This assay was performed as first described before.[39] […]

The target of a further series is T2, mouse MAGL (Mus musculus, UniProt O35678).
T2 sequence (O35678 1-303): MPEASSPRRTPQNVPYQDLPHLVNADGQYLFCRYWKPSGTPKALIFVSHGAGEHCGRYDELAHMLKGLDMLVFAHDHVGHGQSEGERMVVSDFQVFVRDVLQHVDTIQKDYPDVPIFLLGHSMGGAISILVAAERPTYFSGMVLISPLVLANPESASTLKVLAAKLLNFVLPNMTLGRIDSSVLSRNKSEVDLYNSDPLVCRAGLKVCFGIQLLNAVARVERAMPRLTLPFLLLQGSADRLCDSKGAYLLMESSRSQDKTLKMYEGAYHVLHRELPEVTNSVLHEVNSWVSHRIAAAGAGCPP
Described as above. The format is biochemical. How it is done:
as §1, §2, §3, §4

Series [1] has as its target T3, NanoLuc luciferase MAGL fusion protein in HEK293A cells (Homo sapiens, UniProt Q99685).
T3 construct: expressed in transfected cells
T3 sequence (Q99685 1-303): T1 sequence (Q99685 1-303)
The series can be described thus: Cellular MAGL NanoBRET target engagement assay. It counts as cell-based. The following applies: Table 2; mean of three independent measurements ± SD; read-out: HEK 293 nanoBRET IC50±SD. How it is done: We, therefore, confirmed cellular MAGL target engagement in a nanoBRET assay using live HEK293 cells.[39] […] To overcome the low cellular potency of 4, we exploited the modular construction principle to modulate unfavorable physicochemical properties and investigated less polar, privileged head groups[23, 33, 40] (Supporting Information Table S4). […]
This assay was performed as first described before.[39]
Compounds were profiled by a novel cellular MAGL NanoBRET™ Target Engagement assay, which measures the apparent affinity of test compounds by competitive displacement of a Roche-developed Tracer (WO2021058443, Example 21)[21], reversibly bound to a NanoLuc® luciferase MAGL fusion protein in cells.
A HEK293A stable cell line expressing NanoLuc_MAGL was established at Roche and assigned as HEK293A_NanoLuc_MAGL clone #43. A fixed concentration of tracer is added to cells expressing the NanoLuc®_MAGL fusion protein to generate a BRET reporter complex. The introduction of competing compounds results in a dose-dependent decrease in NanoBRET™ energy transfer, which allows quantification of the intracellular affinity of the target protein for the […]
HEK293A_NanoLuc_MAGL clone #43 cells were cultured in DMEM (Gibco 31966) with 10% FBS and 800 ug/ml G418. The NanoBRET assay was performed by seeding 5000 cells/well in Costar low-volume white 384-well plate in assay buffer (1% FBS in HBSS), followed by adding 50 nM final concentration of tracer and serial dilutions of test compounds. After 2 hours of incubation, Nanoluciferase substrates and extracellular inhibitors were added following the manufacturer's protocol (Promega, #N2520), and the NanoBRET signaling were quantified with the Paradigm
A general note: Bioluminescence resonance energy transfer reports proximity on the nanometre scale.

Series [2] in a line: Fluorescence excitation/absorption and emission maxima. It counts as physicochemical. The following applies: PBS pH 7.4. The source says:
Figure S8. Fluorescence excitation and emission spectra of the utilized fluorescent reporters in PBS pH 7.4. Spectra l differences between probes carrying the same fluorophore were […]
Table S6. Fluorescence excitation, emission maxima, and Stokes-shift in PBS pH 7.4 for the used fluorophores, respectively. difference s between probes with the same fluorophore were […]
λmax Excitation [nm] λmax Emission [nm] Stokes-shift [nm]
(1 picture or pasted object on this page, not shown here)

[3] abbreviates: Table 2, mean of three independent measurements ± SD, read-out: hMAGL IC50±SD.
Where [4] appears, read: Table 2, mean of three independent measurements ± SD, read-out: mMAGL IC50±SD.

Like-named read-outs stand apart in the source and are kept apart here. A value given as a limit tells only on which side of the number the result lay.

The IC50 is the concentration that gives 50% inhibition. `CN(C)c1ccc2c(c1)[Si](C)(C)c1cc(N(C)C)ccc1C21OC(=O)c2ccc(C(=O)NCCCCCOc3ccccc3CC3CC4(C3)CN(C(=O)OC(C(F)(F)F)C(F)(F)F)C4)cc21` (stereo not drawn) [Compound 12]: the IC50 on human MAGL (setting [3]) was 1.15 ± 0.29 nM; at mouse MAGL (setting [4]), 1.35 ± 0.3 nM; in series [1] it was greater than 1000 nM. Besides, the “λmax Em (fluorescence emission maximum)” value in series [2] amounted to 673 nm. Further, in series [2], the “λmax Ex (fluorescence excitation maximum)” value is reported as 654 nm.

Consider `CN(C)c1ccc2c(c1)[Si](C)(C)c1cc(N(C)C)ccc1C21OC(=O)c2ccc(C(=O)NCCCCCOc3ccccc3CC3CC4(C3)CN(C(=O)N3CC5(COC(=O)N5)C3)C4)cc21` (stereo not drawn) [Compound 10], for which the IC50 came to 0.187 nM at human MAGL (Supporting Information Tables S1-S5, read-out: IC50 hMAGL); 0.15 ± 0.11 nM at human MAGL (setting [3]); 0.155 nM on mouse MAGL (Supporting Information Tables S1-S5, read-out: IC50 mMAGL); 0.16 ± 0.09 nM on mouse MAGL (setting [4]); 285 ± 240 nM in series [1]. Besides, the “λmax Em (fluorescence emission maximum)” value in series [2] worked out at 673 nm. Further, the “λmax Ex (fluorescence excitation maximum)” value in series [2] is 654 nm.

Values taken from PMC11878344 (Angewandte Chemie (International Ed. in English), 2025).
